Reference: ChEMBL document CHEMBL5352424, “Boosting caffeic acid performance as antioxidant and monoamine oxidase B/catechol-O-methyltransferase inhibitor” (Eur J Med Chem, 2022)
Active and inactive are the calls of the source. The rule behind the calls is not given here.

Experiments:
[1] = biological target: T1, Amine oxidase [flavin-containing] A (Homo sapiens, UniProt P21397); assay: Inhibition of human MAO-A using kynuramine as substrate at 10 uM incubated for 30 mins by spectrophotometry analysis relative to control; details: 0.5 h
T1 sequence (P21397 whole entry): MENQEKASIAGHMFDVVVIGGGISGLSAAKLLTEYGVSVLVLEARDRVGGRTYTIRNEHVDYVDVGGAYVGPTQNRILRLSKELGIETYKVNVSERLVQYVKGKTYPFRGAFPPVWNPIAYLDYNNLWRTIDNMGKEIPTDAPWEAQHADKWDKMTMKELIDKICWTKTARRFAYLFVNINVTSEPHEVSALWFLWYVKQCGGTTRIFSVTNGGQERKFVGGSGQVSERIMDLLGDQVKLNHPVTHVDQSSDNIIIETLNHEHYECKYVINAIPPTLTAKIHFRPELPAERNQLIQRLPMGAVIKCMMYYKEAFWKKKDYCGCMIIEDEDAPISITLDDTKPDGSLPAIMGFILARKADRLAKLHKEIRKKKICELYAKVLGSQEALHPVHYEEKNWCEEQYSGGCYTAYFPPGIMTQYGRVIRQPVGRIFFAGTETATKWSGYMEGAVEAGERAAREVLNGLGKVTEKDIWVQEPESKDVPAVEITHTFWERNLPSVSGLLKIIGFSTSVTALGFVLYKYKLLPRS

[2] = Antioxidant activity assessed as ORAC-FL index; format: functional
[3] = Oxidation potential of compound at pH 7.3 by differential pulse voltammetry analysis; format: physicochemical
[4] = biological target: T2, Amine oxidase [flavin-containing] B (Homo sapiens, UniProt P27338); assay: Inhibition of human MAO-B using kynuramine as substrate at 10 uM incubated for 30 mins by spectrophotometry analysis relative to control; details: 0.5 h
T2 sequence (P27338 whole entry): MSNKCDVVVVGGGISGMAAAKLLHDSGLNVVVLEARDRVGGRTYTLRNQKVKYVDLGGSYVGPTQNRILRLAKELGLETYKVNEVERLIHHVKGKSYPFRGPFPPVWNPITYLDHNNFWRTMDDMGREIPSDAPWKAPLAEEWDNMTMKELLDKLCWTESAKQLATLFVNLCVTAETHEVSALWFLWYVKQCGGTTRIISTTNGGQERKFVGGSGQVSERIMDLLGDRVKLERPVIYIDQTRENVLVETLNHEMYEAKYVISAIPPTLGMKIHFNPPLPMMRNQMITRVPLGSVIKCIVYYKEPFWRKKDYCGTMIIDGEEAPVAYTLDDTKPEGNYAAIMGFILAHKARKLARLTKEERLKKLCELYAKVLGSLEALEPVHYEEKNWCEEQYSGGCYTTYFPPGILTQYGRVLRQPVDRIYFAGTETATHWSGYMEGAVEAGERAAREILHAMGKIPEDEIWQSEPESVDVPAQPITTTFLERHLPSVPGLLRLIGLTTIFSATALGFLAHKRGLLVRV

SH-SY5Y [5] = assay: Cytotoxicity against retinoic acid and TPA-differentiated human SH-SY5Y cells assessed as reduction in metabolic activity by measuring reduction in resorufin fluorescence at 10 to 50 uM incubated for 24 hrs by resazurin dye based assay; format: toxicity, cell-based; details: dose 10-50 µM
SH-SY5Y [6] = assay: Cytotoxicity against retinoic acid and TPA-differentiated human SH-SY5Y cells assessed as reduction in lysosomal activity by measuring neutral red dye internalization at 10 to 50 uM incubated for 24 hrs by neutral red dye based assay; format: toxicity, cell-based; details: dose 10-50 µM
[7] = biological target: T3, Catechol O-methyltransferase (Rattus norvegicus) (UniProt P22734); assay: Inhibition of S-COMT in rat liver homogenates using adrenaline as substrate and SAM as cofactor at 30 uM preincubated for 20 mins followed by substrate addition and measured after 5 mins relative to control; format: tissue-based; details: time 25.0 min
T3 sequence (whole entry): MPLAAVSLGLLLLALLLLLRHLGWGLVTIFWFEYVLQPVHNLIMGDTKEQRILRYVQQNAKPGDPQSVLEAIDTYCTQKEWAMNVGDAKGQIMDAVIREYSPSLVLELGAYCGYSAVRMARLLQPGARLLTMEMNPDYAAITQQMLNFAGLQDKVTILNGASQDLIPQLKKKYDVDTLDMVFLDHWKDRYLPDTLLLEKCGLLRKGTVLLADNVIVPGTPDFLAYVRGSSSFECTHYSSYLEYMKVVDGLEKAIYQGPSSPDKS

[8] = biological target: T3, Catechol O-methyltransferase (Rattus norvegicus); assay: Inhibition of MB-COMT in rat liver homogenates using adrenaline as substrate and SAM as cofactor at 30 uM preincubated for 20 mins followed by substrate addition and measured after 5 mins relative to control; format: tissue-based; details: time 25.0 min
[9] = biological target: T3, Catechol O-methyltransferase (Rattus norvegicus); assay: Inhibition of MB-COMT in rat brain homogenates using adrenaline as substrate and SAM as cofactor at 30 uM preincubated for 20 mins followed by substrate addition and measured after 5 mins relative to control; format: tissue-based; details: time 25.0 min
SH-SY5Y [10] = assay: Cytoprotective activity against t-BHP induced oxidative stress in retinoic acid and TPA-differentiated human SH-SY5Y cells assessed as increase in resorufin fluorescence at 10 uM pretreated for 30 mins followed by t-BHP stimulation and measured after 24 hrs by resazurin dye based analysis; format: functional, cell-based; details: time 24.5 hrs
[11] = biological target: T4, Catechol O-methyltransferase (Rattus norvegicus, UniProt P22734); assay: Inhibition of MB-COMT in rat brain homogenates using adrenaline as substrate and SAM as cofactor preincubated for 20 mins followed by substrate addition and measured after 5 mins; format: tissue-based
T4 sequence (P22734 whole entry): T3 sequence (whole entry)

SH-SY5Y [12] = assay: Cytotoxicity against retinoic acid and TPA-differentiated human SH-SY5Y cells assessed as reduction in lysosomal activity at 50 uM incubated for 24 hrs by neutral red dye based assay; format: toxicity, cell-based
SH-SY5Y [13] = assay: Cytotoxicity against retinoic acid and TPA-differentiated human SH-SY5Y cells assessed as reduction in lysosomal activity by measuring neutral red dye uptake at 10 uM incubated for 24 hrs by neutral red dye based assay relative to control; format: toxicity, cell-based; set-up: scale not given: the % may be the effect or the level left
[14] = biological target: T4, Catechol O-methyltransferase; assay: Inhibition of MB-COMT in rat liver homogenates using adrenaline as substrate and SAM as cofactor preincubated for 20 mins followed by substrate addition and measured after 5 mins; format: tissue-based
SH-SY5Y [15] = assay: Cytotoxicity against retinoic acid and TPA-differentiated human SH-SY5Y cells assessed as reduction in metabolic activity by measuring resazurin reduction at 10 uM incubated for 24 hrs by resazurin dye based assay relative to control; format: toxicity, cell-based; set-up: scale not given: the % may be the effect or the level left
Rattus norvegicus = species: Rattus norvegicus; assay: Selectivity index, ratio of IC50 for S-COMT in rat liver homogenates to IC50 for MB-COMT in rat brain homogenates; format: tissue-based
[16] = biological target: T2, Amine oxidase [flavin-containing] B; assay: Inhibition of human MAO-B using kynuramine as substrate incubated for 30 mins by spectrophotometry analysis
Homo sapiens = species: Homo sapiens; assay: Selectivity index, ratio of IC50 for human MAO-A to IC50 for human MAO-B
SK-N-SH = assay: Cytotoxicity against human SK-N-SH cells assessed as reduction in calcein fluorescence at 30 to 50 uM by calcein-AM assay; format: toxicity, cell-based; details: dose 30-50 µM
[17] = Chromatographic hydrophobicity index of compound at pH 2.6 by HPLC analysis; format: physicochemical
[18] = Retention time of compound at pH 2.6 by LC/UV analysis; format: physicochemical; details: buffer
SH-SY5Y [19] = assay: Cytotoxicity against retinoic acid and TPA-differentiated human SH-SY5Y cells assessed as increase in intracellular ROS formation by measuring increase in DCF fluorescence at 10 to 50 uM incubated for 24 hrs by DCF fluorescence analysis; format: toxicity, cell-based; details: dose 10-50 µM
SH-SY5Y [20] = assay: Cytotoxicity against retinoic acid and TPA-differentiated human SH-SY5Y cells upto 50 uM incubated for 24 hrs by resazurin dye based assay; format: toxicity, cell-based
SH-SY5Y [21] = assay: Cytotoxicity against retinoic acid and TPA-differentiated human SH-SY5Y cells upto 50 uM incubated for 24 hrs by neutral red dye based assay; format: toxicity, cell-based

inhibition at 10 µM [1]	Ep [3]	inhibition at 10 µM [4]	inhibition [7]	IC50 [11]	IC50 [14]	IC50 [16]	Ratio IC50 (Homo sapiens)	SMILES	Activity index [2]	Activity (SH-SY5Y [5])	Activity (SH-SY5Y [6])	Activity (SH-SY5Y [10])	Activity (SH-SY5Y [12])	Activity (SH-SY5Y [13])	Activity (SH-SY5Y [15])	Ratio IC50 (Rattus norvegicus)	also measured
< 50%	168 mV	< 50%						O=C(O)/C=C/c1ccc(O)c(O)c1 [CAFFEIC ACID]	4.8	Non-Toxic	Non-Toxic						
< 50%	144 mV	< 50%	< 50%					N#C/C(=C\C=C\c1ccc(O)c(O)c1)C(=O)O	4.9	Non-Toxic	Non-Toxic	inactive					inhibition [8]: < 50%; inhibition [9]: < 50%
< 50%	129 mV	< 50%	< 50%	1480 nM	4270 nM			O=C(/C=C/C=C/c1ccc(O)c(O)c1)NCc1ccccc1	4			Active	Toxic	> 85%	> 85%	> 20	
< 50%	163 mV		< 50%	1270 nM	4000 nM	4380 nM	> 2.3	N#C/C(=C\C=C\c1ccc(O)c(O)c1)C(=O)NCCc1ccccc1	3	Non-Toxic		Active	Toxic	> 85%		> 24	
< 50%	114 mV	< 50%	< 50%	1620 nM	6130 nM			O=C(/C=C/C=C/c1ccc(O)c(O)c1)Nc1ccccc1	4.1			Active	Toxic	> 85%	> 85%	> 19	
< 50%	154 mV		< 50%	1330 nM	2690 nM	4270 nM	> 2.3	N#C/C(=C\C=C\c1ccc(O)c(O)c1)C(=O)N1CCCCC1	3.5		Non-Toxic	Active			> 85%	> 23	Activity (SK-N-SH): Non-Toxic; CHI [17]: 56.03; Retention_time [18]: 10.5 min
< 50%	113 mV		< 50%	1650 nM	3840 nM	2500 nM	> 4	O=C(/C=C/C=C/c1ccc(O)c(O)c1)N1CCCCC1	4.3			Active	Toxic	> 85%	> 85%	> 18	CHI [17]: 49.61; Activity (SH-SY5Y [19]): Non-Toxic; Retention_time [18]: 10.08 min
< 50%	174 mV		< 50%			1150 nM	> 8.7	N#C/C(=C\C=C\c1ccc(O)c(O)c1)C(=O)NCc1ccccc1 [LS-104]	2.8			Active	Toxic	> 85%	> 85%		inhibition [8]: < 50%; inhibition [9]: < 50%
< 50%	129 mV	< 50%	< 50%					O=C(O)/C=C/C=C/c1ccc(O)c(O)c1 [DEMETHYLENATED PIPERIC ACID]	5.5	Non-Toxic	Non-Toxic	inactive					inhibition [8]: < 50%; Activity (SH-SY5Y [19]): Non-Toxic; inhibition [9]: < 50%
< 50%	161 mV		< 50%	2410 nM	3740 nM	4550 nM	> 2.2	N#C/C(=C\C=C\c1ccc(O)c(O)c1)C(=O)Nc1ccccc1	3.5			Active	Toxic	> 85%	> 85%	> 12	
								Cc1ccc(C(=O)c2cc(O)c(O)c([N+](=O)[O-])c2)cc1 [TOLCAPONE]									Activity (SH-SY5Y [20]): Non-Toxic; Activity (SK-N-SH): Non-Toxic; Activity (SH-SY5Y [21]): Non-Toxic
< 50%	124 mV	< 50%	< 50%	1320 nM	3640 nM			O=C(/C=C/C=C/c1ccc(O)c(O)c1)NCCc1ccccc1	3.3	Non-Toxic		Active	Toxic	> 85%		> 22	

SMILES	inhibition at 10 µM [1]	Ep [3]	inhibition at 10 µM [4]	inhibition [7]	IC50 [11]	IC50 [14]	IC50 [16]	Ratio IC50 (Homo sapiens)	Activity index [2]	Activity (SH-SY5Y [5])	Activity (SH-SY5Y [6])	Activity (SH-SY5Y [10])	Activity (SH-SY5Y [12])	Activity (SH-SY5Y [13])	Activity (SH-SY5Y [15])	Ratio IC50 (Rattus norvegicus)	also measured
C[C@H](NCc1ccc(OCc2cccc(F)c2)cc1)C(N)=O [SAFINAMIDE]	< 50%																
